Results: PubChem BioAssay (NCI)
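96-well plates; 48 h exposure; 5 concentrations. Endpoints by linear interpolation between flanking doses. Not reached: highest tested concentration assigned. GI50 is the concentration that inhibits growth by half. TGI marks complete inhibition of growth.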

Experiments:
Experiment in all cases: NCI-60 cell line screen, 48 h
[1] = tested on: CCRF-CEM leukemia
[2] = tested on: COLO 205 colon
[3] = tested on: HL-60(TB) leukemia
[4] = tested on: MDA-MB-231 breast
[5] = tested on: MDA-MB-435
[6] = tested on: SW-620 colon
[7] = tested on: HCC-2998 colon
[8] = tested on: SR leukemia

SMILES	TGI [1]	TGI [2]	TGI [3]	TGI [4]	TGI [5]	TGI [6]	TGI [7]	TGI [8]	GI50 [1]	GI50 [2]	GI50 [7]	GI50 [3]	GI50 [4]	GI50 [5]	GI50 [6]
C#CCn1c(=O)c(Cl)cn(/C(=C/C(=O)OCC)C(=O)OCC)c1=O	13.3 µM	2.5 µM	8.21 µM	35.1 µM	35.8 µM	5.46 µM	–	–	–	–	–	–	–	–	–
CC(=O)N1c2ccccc2C(C)C1c1[nH]c2ccccc2c1C (centres undefined)	> 100 µM	27.9 µM	44.4 µM	53.5 µM	50.4 µM	> 100 µM	34 µM	51.8 µM	–	–	–	–	–	–	–
O=C1CCCC2=C1CC1=C(CCCC1=O)N2c1ccccc1	> 100 µM	–	> 100 µM	–	–	> 100 µM	> 100 µM	> 100 µM	–	–	–	–	–	–	–
Oc1ccc(O)c(CNc2ccccc2)c1	> 100 µM	37.4 µM	12.8 µM	38.4 µM	29.4 µM	> 100 µM	67.7 µM	75.2 µM	–	–	–	–	–	–	–
CC(C)(C)[C@H]1CCC2(OCCO2)[C@](O)(CCCO)C1	> 100 µM	> 100 µM	> 100 µM	> 100 µM	> 100 µM	> 100 µM	> 100 µM	> 100 µM	–	–	–	–	–	–	–
O=C(N/N=C\c1ccccc1)Nc1cccc2ccccc12	> 100 µM	> 100 µM	> 100 µM	> 100 µM	> 100 µM	> 100 µM	> 100 µM	> 100 µM	–	–	–	–	–	–	–
Cc1ccc(C(=O)Nc2ccc(S(=O)(=O)O)c3cc(S(=O)(=O)O)cc(S(=O)(=O)O)c23)cc1NC(=O)c1cccc(NC(=O)Nc2cccc(C(=O)Nc3cc(C(=O)Nc4ccc(S(=O)(=O)O)c5cc(S(=O)(=O)O)cc(S(=O)(=O)O)c45)ccc3C)c2)c1 (tested in a mixture with another compound)	> 50 µM	> 50 µM	> 50 µM	> 50 µM	> 50 µM	> 50 µM	> 50 µM	> 50 µM	–	–	–	–	–	–	–
COC(=O)c1cc(C(=CCC[C@H]2CC[C@@]3(C)C(CCC4C3CC[C@@]3(C)C4CC[C@@H]3C(C)CCCC(C)C)C2)c2cc(Cl)c(OC(=O)c3ccccc3)c(C(=O)OC)c2)cc(Cl)c1OC(=O)c1ccccc1 (some centres undefined)	> 10 µM	> 10 µM	> 10 µM	> 10 µM	> 10 µM	> 10 µM	> 10 µM	> 10 µM	–	–	–	–	–	–	–
COC(=O)c1ccccc1C1CN=NC12Cc1cccc(C)c1C2=O (centres undefined)	> 100 µM	–	72.1 µM	> 100 µM	> 100 µM	> 100 µM	> 100 µM	> 100 µM	–	–	–	–	–	–	–
c1ccc(N=C2SC3=NCCN3C2=Nc2ccccc2)cc1	11.8 µM	33.3 µM	–	60.5 µM	43 µM	–	52.4 µM	> 100 µM	–	–	–	–	–	–	–
COC(=O)[C@H](Cc1ccccc1)NP(=O)(O)OCC1C=CC(n2cc(C)c(=O)[nH]c2=O)O1 (some centres undefined)	> 100 µM	> 100 µM	> 100 µM	> 100 µM	> 100 µM	> 100 µM	> 100 µM	–	–	–	–	–	–	–	–
CC(=O)O[C@H]1C[C@H]2C(=S)Nc3ccccc3C(=S)N2C1	> 100 µM	> 100 µM	–	> 100 µM	> 100 µM	> 100 µM	> 100 µM	> 100 µM	–	–	–	–	–	–	–
C#CC(O)/C=C/C(O)CCCC(O)CC#CC(O)C#CC(O)CCCC(O)/C=C/CCCC(=O)CCCCCCCCCCCCCCCC(O)C(O)C#CC(=O)O (centres undefined)	36.3 µM	> 50 µM	27.4 µM	> 50 µM	> 50 µM	–	> 50 µM	> 50 µM	–	–	–	–	–	–	–
O=[N+]([O-])c1ccc2c(c1)c(S(=O)(=O)O)cc1nonc12	–	> 100 µM	> 100 µM	> 100 µM	> 100 µM	> 100 µM	–	> 100 µM	–	–	–	–	–	–	–
CC[C@@]12C=CC(=S)N(CCSc3ccccc3)[C@@H]1c1c(n(S(=O)(=O)c3ccc(OC)cc3)c3ccccc13)CC2	> 100 µM	> 100 µM	> 100 µM	> 100 µM	> 100 µM	> 100 µM	> 100 µM	–	–	–	–	–	–	–	–
CCc1nc2ccc(C(F)(F)F)cc2[nH]c1=O	> 100 µM	> 100 µM	> 100 µM	> 100 µM	> 100 µM	> 100 µM	> 100 µM	–	–	–	–	–	–	–	–
c1ccc(C(CCN2CC3CCC(CC3)C2)c2ccccc2)cc1	–	25.1 µM	–	38.3 µM	65.4 µM	> 100 µM	–	46.4 µM	–	–	–	–	–	–	–
Oc1ccc(C#CCOc2ccccc2)cc1CNCCN(Cc1ccccn1)Cc1ccccn1	10.7 µM	9.74 µM	4.21 µM	2.96 µM	3.44 µM	4.89 µM	3.36 µM	–	0.833 µM	2.8 µM	1.65 µM	1.19 µM	1.38 µM	1.82 µM	1.86 µM
CC(C)(C)c1ccc(C(C)(C)C)c(N2C(=O)C3ON=C(c4ccc([N+](=O)[O-])cc4)C3C2=O)c1 (centres undefined)	> 25 µM	> 25 µM	> 25 µM	–	> 25 µM	> 25 µM	> 25 µM	> 25 µM	–	–	–	–	–	–	–
CCN1CCC(O)(c2ccc(Oc3ccc(C)cc3)cc2)C(C(=O)c2ccc(Oc3ccc(C)cc3)cc2)C1 (centres undefined)	21.8 µM	26.1 µM	3.7 µM	20.4 µM	24.9 µM	27.7 µM	20.8 µM	–	–	–	–	–	–	–	–
O=C1c2ccccc2-c2nc(/C=C/c3ccccc3)cc3c2c1nc1ccccc13	> 100 µM	69.8 µM	–	74 µM	26.9 µM	85.6 µM	64.6 µM	50.6 µM	–	–	–	–	–	–	–
CC1(CC2=C(C(=O)NCCO[Si](C)(C)C(C)(C)C)C3(OCCO3)C2=O)OCCO1	> 100 µM	> 100 µM	> 100 µM	> 100 µM	> 100 µM	> 100 µM	–	–	–	–	–	–	–	–	–
NS(=O)(=O)c1nnc(NS(=O)(=O)c2ccccc2C(=O)O)s1	–	> 100 µM	–	> 100 µM	> 100 µM	> 100 µM	> 100 µM	> 100 µM	–	–	–	–	–	–	–
COc1cc2c(cc1OCCCC(=O)Nc1cc(C(=O)NCCCN(C)C)n(C)n1)N=CC1CCCN1C2=O (centres undefined)	–	> 23 µM	0.24 µM	> 39.9 µM	> 100 µM	> 25 µM	28.3 µM	0.59 µM	–	–	–	–	–	–	–
COc1ccccc1NC(=O)O/N=C(/Cl)C(C)C	3.57 µM	5.09 µM	3.6 µM	18.3 µM	–	3.39 µM	30.1 µM	4.73 µM	–	–	–	–	–	–	–
